COc1ccc(-c2nn(-c3ccccc3)cc2/C=C/C(=O)c2nc3ccccc3[nH]2)cc1OC
solubility (mole fraction) (in acetonitrile, 298.15 K): 0.000113 | solubility (mole fraction) (in acetonitrile, 303.15 K): 0.000135 | solubility (mole fraction) (in acetonitrile, 308.15 K): 0.000152 | solubility (mole fraction) (in acetonitrile, 313.15 K): 0.00017 | solubility (mole fraction) (in acetonitrile, 318.15 K): 0.000189 | solubility (mole fraction) (in acetonitrile, 323.15 K): 0.00021 | solubility (mole fraction) (in acetonitrile, 328.15 K): 0.00023 | solubility (mole fraction) (in ethanol, 298.15 K): 3.91e-05 | solubility (mole fraction) (in ethanol, 303.15 K): 5e-05 | solubility (mole fraction) (in ethanol, 308.15 K): 5.88e-05 | solubility (mole fraction) (in ethanol, 313.15 K): 7.16e-05 | solubility (mole fraction) (in ethanol, 318.15 K): 8.46e-05 | solubility (mole fraction) (in ethanol, 323.15 K): 0.0001 | solubility (mole fraction) (in ethanol, 328.15 K): 0.000111 | solubility (mole fraction) (in ethyl acetate, 298.15 K): 0.000355 | solubility (mole fraction) (in ethyl acetate, 303.15 K): 0.000425 | solubility (mole fraction) (in ethyl acetate, 308.15 K): 0.000471 | solubility (mole fraction) (in ethyl acetate, 313.15 K): 0.00052 | solubility (mole fraction) (in ethyl acetate, 318.15 K): 0.000554 | solubility (mole fraction) (in ethyl acetate, 323.15 K): 0.00059 | solubility (mole fraction) (in ethyl acetate, 328.15 K): 0.000629 | solubility (mole fraction) (in methanol, 298.15 K): 3.04e-05 | solubility (mole fraction) (in methanol, 303.15 K): 3.6e-05 | solubility (mole fraction) (in methanol, 308.15 K): 4.06e-05 | solubility (mole fraction) (in methanol, 313.15 K): 4.47e-05 | solubility (mole fraction) (in methanol, 318.15 K): 5.02e-05 | solubility (mole fraction) (in methanol, 323.15 K): 5.5e-05 | solubility (mole fraction) (in methanol, 328.15 K): 6.53e-05 | solubility (mole fraction) (in n-butanol, 298.15 K): 0.00016 | solubility (mole fraction) (in n-butanol, 303.15 K): 0.000209 | solubility (mole fraction) (in n-butanol, 308.15 K): 0.000244 | solubility (mole fraction) (in n-butanol, 313.15 K): 0.00028 | solubility (mole fraction) (in n-butanol, 318.15 K): 0.000321 | solubility (mole fraction) (in n-butanol, 323.15 K): 0.00035 | solubility (mole fraction) (in n-butanol, 328.15 K): 0.00039 | solubility (mole fraction) (in n-pentanol, 298.15 K): 0.00031 | solubility (mole fraction) (in n-pentanol, 303.15 K): 0.00033 | solubility (mole fraction) (in n-pentanol, 308.15 K): 0.000354 | solubility (mole fraction) (in n-pentanol, 313.15 K): 0.000375 | solubility (mole fraction) (in n-pentanol, 318.15 K): 0.000395 | solubility (mole fraction) (in n-pentanol, 323.15 K): 0.000412 | solubility (mole fraction) (in n-pentanol, 328.15 K): 0.00043 | solubility (mole fraction) (in n-propanol, 298.15 K): 0.000125 | solubility (mole fraction) (in n-propanol, 303.15 K): 0.00014 | solubility (mole fraction) (in n-propanol, 308.15 K): 0.00015 | solubility (mole fraction) (in n-propanol, 313.15 K): 0.000167 | solubility (mole fraction) (in n-propanol, 318.15 K): 0.000185 | solubility (mole fraction) (in n-propanol, 323.15 K): 0.0002 | solubility (mole fraction) (in n-propanol, 328.15 K): 0.00022

O=C(/C=C/c1cn(-c2ccccc2)nc1-c1ccccc1Cl)c1nc2ccccc2[nH]1
solubility (mole fraction) (in acetonitrile, 298.15 K): 1.78e-05 | solubility (mole fraction) (in acetonitrile, 303.15 K): 6e-05 | solubility (mole fraction) (in acetonitrile, 308.15 K): 0.000101 | solubility (mole fraction) (in acetonitrile, 313.15 K): 0.00014 | solubility (mole fraction) (in acetonitrile, 318.15 K): 0.000187 | solubility (mole fraction) (in acetonitrile, 323.15 K): 0.00021 | solubility (mole fraction) (in acetonitrile, 328.15 K): 0.000241 | solubility (mole fraction) (in ethanol, 298.15 K): 0.000105 | solubility (mole fraction) (in ethanol, 303.15 K): 0.000125 | solubility (mole fraction) (in ethanol, 308.15 K): 0.000145 | solubility (mole fraction) (in ethanol, 313.15 K): 0.000157 | solubility (mole fraction) (in ethanol, 318.15 K): 0.000179 | solubility (mole fraction) (in ethanol, 323.15 K): 0.000195 | solubility (mole fraction) (in ethanol, 328.15 K): 0.000217 | solubility (mole fraction) (in ethyl acetate, 298.15 K): 0.00077 | solubility (mole fraction) (in ethyl acetate, 303.15 K): 0.00095 | solubility (mole fraction) (in ethyl acetate, 308.15 K): 0.00107 | solubility (mole fraction) (in ethyl acetate, 313.15 K): 0.0012 | solubility (mole fraction) (in ethyl acetate, 318.15 K): 0.00135 | solubility (mole fraction) (in ethyl acetate, 323.15 K): 0.00145 | solubility (mole fraction) (in ethyl acetate, 328.15 K): 0.00157 | solubility (mole fraction) (in methanol, 298.15 K): 9.04e-05 | solubility (mole fraction) (in methanol, 303.15 K): 0.000116 | solubility (mole fraction) (in methanol, 308.15 K): 0.000133 | solubility (mole fraction) (in methanol, 313.15 K): 0.000149 | solubility (mole fraction) (in methanol, 318.15 K): 0.000168 | solubility (mole fraction) (in methanol, 323.15 K): 0.000187 | solubility (mole fraction) (in methanol, 328.15 K): 0.000209 | solubility (mole fraction) (in n-butanol, 298.15 K): 0.000294 | solubility (mole fraction) (in n-butanol, 303.15 K): 0.00033 | solubility (mole fraction) (in n-butanol, 308.15 K): 0.000354 | solubility (mole fraction) (in n-butanol, 313.15 K): 0.0004 | solubility (mole fraction) (in n-butanol, 318.15 K): 0.000445 | solubility (mole fraction) (in n-butanol, 323.15 K): 0.0005 | solubility (mole fraction) (in n-butanol, 328.15 K): 0.000533 | solubility (mole fraction) (in n-pentanol, 298.15 K): 0.000354 | solubility (mole fraction) (in n-pentanol, 303.15 K): 0.0004 | solubility (mole fraction) (in n-pentanol, 308.15 K): 0.000448 | solubility (mole fraction) (in n-pentanol, 313.15 K): 0.00051 | solubility (mole fraction) (in n-pentanol, 318.15 K): 0.0006 | solubility (mole fraction) (in n-pentanol, 323.15 K): 0.00069 | solubility (mole fraction) (in n-pentanol, 328.15 K): 0.00074 | solubility (mole fraction) (in n-propanol, 298.15 K): 0.000157 | solubility (mole fraction) (in n-propanol, 303.15 K): 0.000167 | solubility (mole fraction) (in n-propanol, 308.15 K): 0.000177 | solubility (mole fraction) (in n-propanol, 313.15 K): 0.000189 | solubility (mole fraction) (in n-propanol, 318.15 K): 0.000205 | solubility (mole fraction) (in n-propanol, 323.15 K): 0.00022 | solubility (mole fraction) (in n-propanol, 328.15 K): 0.000244

COc1ccc(-c2nn(-c3ccccc3)cc2/C=C/C(=O)c2nc3ccccc3[nH]2)cc1
solubility (mole fraction) (in acetonitrile, 298.15 K): 0.000165 | solubility (mole fraction) (in acetonitrile, 303.15 K): 0.0002 | solubility (mole fraction) (in acetonitrile, 308.15 K): 0.000227 | solubility (mole fraction) (in acetonitrile, 313.15 K): 0.00025 | solubility (mole fraction) (in acetonitrile, 318.15 K): 0.000282 | solubility (mole fraction) (in acetonitrile, 323.15 K): 0.000301 | solubility (mole fraction) (in acetonitrile, 328.15 K): 0.000329 | solubility (mole fraction) (in ethanol, 298.15 K): 0.000352 | solubility (mole fraction) (in ethanol, 303.15 K): 0.000372 | solubility (mole fraction) (in ethanol, 308.15 K): 0.000385 | solubility (mole fraction) (in ethanol, 313.15 K): 0.000399 | solubility (mole fraction) (in ethanol, 318.15 K): 0.00042 | solubility (mole fraction) (in ethanol, 323.15 K): 0.00043 | solubility (mole fraction) (in ethanol, 328.15 K): 0.000452 | solubility (mole fraction) (in ethyl acetate, 298.15 K): 0.000809 | solubility (mole fraction) (in ethyl acetate, 303.15 K): 0.000826 | solubility (mole fraction) (in ethyl acetate, 308.15 K): 0.000846 | solubility (mole fraction) (in ethyl acetate, 313.15 K): 0.000868 | solubility (mole fraction) (in ethyl acetate, 318.15 K): 0.000886 | solubility (mole fraction) (in ethyl acetate, 323.15 K): 0.00091 | solubility (mole fraction) (in ethyl acetate, 328.15 K): 0.000935 | solubility (mole fraction) (in methanol, 298.15 K): 0.000145 | solubility (mole fraction) (in methanol, 303.15 K): 0.000149 | solubility (mole fraction) (in methanol, 308.15 K): 0.000155 | solubility (mole fraction) (in methanol, 313.15 K): 0.00016 | solubility (mole fraction) (in methanol, 318.15 K): 0.000167 | solubility (mole fraction) (in methanol, 323.15 K): 0.00017 | solubility (mole fraction) (in methanol, 328.15 K): 0.000177 | solubility (mole fraction) (in n-butanol, 298.15 K): 0.00133 | solubility (mole fraction) (in n-butanol, 303.15 K): 0.00136 | solubility (mole fraction) (in n-butanol, 308.15 K): 0.00138 | solubility (mole fraction) (in n-butanol, 313.15 K): 0.00142 | solubility (mole fraction) (in n-butanol, 318.15 K): 0.00145 | solubility (mole fraction) (in n-butanol, 323.15 K): 0.00149 | solubility (mole fraction) (in n-butanol, 328.15 K): 0.00151 | solubility (mole fraction) (in n-pentanol, 298.15 K): 0.00156 | solubility (mole fraction) (in n-pentanol, 303.15 K): 0.00162 | solubility (mole fraction) (in n-pentanol, 308.15 K): 0.00168 | solubility (mole fraction) (in n-pentanol, 313.15 K): 0.00174 | solubility (mole fraction) (in n-pentanol, 318.15 K): 0.00179 | solubility (mole fraction) (in n-pentanol, 323.15 K): 0.00185 | solubility (mole fraction) (in n-pentanol, 328.15 K): 0.00191 | solubility (mole fraction) (in n-propanol, 298.15 K): 0.00049 | solubility (mole fraction) (in n-propanol, 303.15 K): 0.00052 | solubility (mole fraction) (in n-propanol, 308.15 K): 0.000541 | solubility (mole fraction) (in n-propanol, 313.15 K): 0.000565 | solubility (mole fraction) (in n-propanol, 318.15 K): 0.000586 | solubility (mole fraction) (in n-propanol, 323.15 K): 0.000615 | solubility (mole fraction) (in n-propanol, 328.15 K): 0.000628
